US10849988B2, “Hydrogel for engineered immune response to D-chirality peptides” (THE REGENTS OF THE UNIVERSITY OF CALIFORNIA, priority 2016, dated 2020)
Where no end group is shown, it is not given here. [ ]: non-standard residue; d: D form.

System: macrophages
Assay: In vitro macrophage assay, mRNA production of key markers of inflammation
Assay type: cell-based
Description: FIGS. 6A-6I show data from comparative studies on D and L peptides. […] Note: in 1:1 L/D samples the L gels are unlabeled. FIG. 6B) Quantification of CD11b positive cells (immune cells) within and around gel within a healed dermal wound bed at Day 21 (ex. FIG. 6A). FIG. 6C) Comparing cell recruitment into subcutaneously-injected gels as a function of adaptive immune competence (Balb/c) versus adaptive immune incompetence (Rag2gc−/−). FIG. 6D) Fraction of immune cell to total cell recruitment within a subcutaneously injected gels as a function of adaptive immune competence (Balb/c) versus adaptive immune incompetence (Rag2gc−/−). FIGS. 6E-I) mRNA production of key markers of inflammation within an in vitro macrophage assay upon exposure to DI water, Lipid Polysaccharide (LPS) 500 ug/mL, D-MMP crosslinker 500 ug/mL, and LPS+D-MMP.

Gly Cys Arg Asp Gly Pro d-Gln Gly d-Ile d-Trp Gly Gln Asp Arg Cys Gly (GCRDGP[dQ]G[dI][dW]GQDRCG; cysteine pairing not given here) [D-MMP]
effect on macrophages (mRNA of key markers of inflammation) relative to the positive control (LPS) (D-MMP crosslinker 500 ug/mL alone): no direct effect
effect on macrophages (mRNA of key markers of inflammation) when combined with the positive control (LPS) (LPS+D-MMP, each 500 ug/mL): some additive affects
